ChEMBL document CHEMBL5385841, “Recent advances in gout drugs” (Eur J Med Chem, 2023)

Test system: not listed separately
Experiment: Oral bioavailability in rat relative to urinary excretion
Type: ADME, organism-based
Conditions: urine

Row | bioavailability [%] | SMILES
1 | 44.3 | O=C(O)[C@H]1O[C@@H](Oc2c(Cl)cc(C(=O)N3CS(=O)(=O)c4ccccc43)cc2Cl)[C@H](O)[C@@H](O)[C@@H]1O
2 | 20 | O=C(c1cc(Cl)c(OS(=O)(=O)O)c(Cl)c1)N1CS(=O)(=O)c2ccccc21

Target: T1, Broad substrate specificity ATP-binding cassette transporter ABCG2 (Homo sapiens, UniProt Q9UNQ0)
T1 sequence (Q9UNQ0 whole entry): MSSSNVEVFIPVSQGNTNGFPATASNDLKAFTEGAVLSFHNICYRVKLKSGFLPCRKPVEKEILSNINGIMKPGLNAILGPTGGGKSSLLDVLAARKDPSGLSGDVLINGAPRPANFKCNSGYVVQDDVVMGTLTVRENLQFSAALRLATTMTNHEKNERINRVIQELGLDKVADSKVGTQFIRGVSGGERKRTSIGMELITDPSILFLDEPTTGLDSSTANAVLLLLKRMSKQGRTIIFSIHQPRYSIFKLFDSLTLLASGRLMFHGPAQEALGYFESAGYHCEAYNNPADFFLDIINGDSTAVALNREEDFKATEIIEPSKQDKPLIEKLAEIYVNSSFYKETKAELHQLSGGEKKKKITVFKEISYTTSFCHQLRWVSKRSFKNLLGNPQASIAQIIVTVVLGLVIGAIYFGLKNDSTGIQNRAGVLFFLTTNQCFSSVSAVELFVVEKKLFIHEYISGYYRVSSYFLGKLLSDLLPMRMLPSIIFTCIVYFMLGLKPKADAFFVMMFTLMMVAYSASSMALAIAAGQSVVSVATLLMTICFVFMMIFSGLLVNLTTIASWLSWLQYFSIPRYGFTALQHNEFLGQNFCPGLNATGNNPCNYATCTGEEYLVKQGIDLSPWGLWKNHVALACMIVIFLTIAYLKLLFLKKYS
Experiment: Inhibition of ABCG2 (unknown origin)
Conditions: not given

Row | IC50 [µM] | SMILES
3 | 0.0372 | O=C(c1cc(Cl)c(O)c(Cl)c1)N1CS(=O)(=O)c2ccccc21 [DOTINURAD]

Target: Xanthine dehydrogenase/oxidase (Homo sapiens, UniProt P47989)
Sequence (P47989 whole entry): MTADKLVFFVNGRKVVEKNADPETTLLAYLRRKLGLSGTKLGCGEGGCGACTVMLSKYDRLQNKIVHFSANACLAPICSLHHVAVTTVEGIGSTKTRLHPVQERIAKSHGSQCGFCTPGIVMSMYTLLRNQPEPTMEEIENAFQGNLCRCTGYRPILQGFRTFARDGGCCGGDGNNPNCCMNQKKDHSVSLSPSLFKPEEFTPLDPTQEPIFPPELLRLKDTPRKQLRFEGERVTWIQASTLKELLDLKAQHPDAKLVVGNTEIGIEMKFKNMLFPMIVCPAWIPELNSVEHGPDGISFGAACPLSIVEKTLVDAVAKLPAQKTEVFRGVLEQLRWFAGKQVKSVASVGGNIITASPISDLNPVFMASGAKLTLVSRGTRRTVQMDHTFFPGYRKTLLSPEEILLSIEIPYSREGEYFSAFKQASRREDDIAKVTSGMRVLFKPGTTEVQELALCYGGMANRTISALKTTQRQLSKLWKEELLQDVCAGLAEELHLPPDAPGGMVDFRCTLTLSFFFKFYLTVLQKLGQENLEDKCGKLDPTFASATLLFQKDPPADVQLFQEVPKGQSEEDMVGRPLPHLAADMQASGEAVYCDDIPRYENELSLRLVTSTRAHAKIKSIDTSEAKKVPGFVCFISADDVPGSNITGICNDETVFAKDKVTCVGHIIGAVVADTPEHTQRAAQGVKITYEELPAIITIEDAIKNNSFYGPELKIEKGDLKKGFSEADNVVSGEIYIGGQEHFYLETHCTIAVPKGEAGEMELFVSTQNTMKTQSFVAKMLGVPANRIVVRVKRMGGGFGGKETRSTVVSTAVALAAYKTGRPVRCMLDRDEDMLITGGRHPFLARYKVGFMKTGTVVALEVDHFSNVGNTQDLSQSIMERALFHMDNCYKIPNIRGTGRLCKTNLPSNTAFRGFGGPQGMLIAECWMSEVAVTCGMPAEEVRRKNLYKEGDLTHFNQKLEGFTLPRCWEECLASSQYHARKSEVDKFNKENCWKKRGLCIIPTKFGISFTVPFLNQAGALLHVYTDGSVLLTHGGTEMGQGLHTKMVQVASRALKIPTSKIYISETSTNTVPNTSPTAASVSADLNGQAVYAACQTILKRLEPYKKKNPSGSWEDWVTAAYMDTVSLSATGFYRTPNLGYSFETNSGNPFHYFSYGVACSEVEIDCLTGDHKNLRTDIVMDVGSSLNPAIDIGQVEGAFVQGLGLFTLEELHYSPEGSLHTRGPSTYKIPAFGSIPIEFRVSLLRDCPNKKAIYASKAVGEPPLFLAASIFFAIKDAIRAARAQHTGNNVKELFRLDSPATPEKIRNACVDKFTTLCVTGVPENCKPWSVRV
Experiment: Inhibition of XO (unknown origin)
Conditions: not given

Row | IC50 [µM] | SMILES
4 | 5.3 | CC(=O)N1N=C(c2ccco2)CC1c1ccncc1 (centres undefined)
5 | 21.7 | N#Cc1ccc(COc2cc(O)cc3oc4cc(O)c(O)cc4c(=O)c23)cc1
6 | 0.62 | O=c1cc(-c2ccc(F)cc2)oc2c1ccc1ccccc12
7 | 6 | Cc1nc(-c2ccc(OCC(C)(C)C)c(C#N)c2)n(O)c1C(=O)O
8 | 25 | Cc1nc(-c2ccc(OCC(C)C)c(C#N)c2)sc1C(=O)O [FEBUXOSTAT]

Row | SMILES | IC50 [µM]
9 | N#CC1=C(N)Oc2c(c(=O)oc3ccccc23)C1c1cccs1 (centres undefined) | 0.59
